# Test results taken from ChEMBL document CHEMBL3638726, “Substituted indole compounds having NOS inhibitory activity” (2013).
# Tests used:
# [1] = target: 5-hydroxytryptamine 1D receptor (Bos taurus, UniProt Q8MI13); assay: Binding Assay: 5-HT1D binding assays (agonist radioligand)were performed using bovine caudate membranes according to the methods of Heuring and Peroutka (J. Neurosci 1987, 7: 894-903). 5-HT1B (rat cerebral cortex) binding assays (agonist radioligand) were performed according to the method of Hoyer et. al. (Eur. J. Pharmacol. […], 118: 1-12).; type: tissue-based
# Nitric oxide synthase 3 = target: T1, Nitric oxide synthase 3 (Homo sapiens, UniProt P29474); assay: Enzyme Assay: Enzyme assay using recombinant human inducible NOS (iNOS), human endothelial constitutive NOS (eNOS) or human neuronal constitutive NOS (nNOS).
# T1 sequence (P29474 whole entry): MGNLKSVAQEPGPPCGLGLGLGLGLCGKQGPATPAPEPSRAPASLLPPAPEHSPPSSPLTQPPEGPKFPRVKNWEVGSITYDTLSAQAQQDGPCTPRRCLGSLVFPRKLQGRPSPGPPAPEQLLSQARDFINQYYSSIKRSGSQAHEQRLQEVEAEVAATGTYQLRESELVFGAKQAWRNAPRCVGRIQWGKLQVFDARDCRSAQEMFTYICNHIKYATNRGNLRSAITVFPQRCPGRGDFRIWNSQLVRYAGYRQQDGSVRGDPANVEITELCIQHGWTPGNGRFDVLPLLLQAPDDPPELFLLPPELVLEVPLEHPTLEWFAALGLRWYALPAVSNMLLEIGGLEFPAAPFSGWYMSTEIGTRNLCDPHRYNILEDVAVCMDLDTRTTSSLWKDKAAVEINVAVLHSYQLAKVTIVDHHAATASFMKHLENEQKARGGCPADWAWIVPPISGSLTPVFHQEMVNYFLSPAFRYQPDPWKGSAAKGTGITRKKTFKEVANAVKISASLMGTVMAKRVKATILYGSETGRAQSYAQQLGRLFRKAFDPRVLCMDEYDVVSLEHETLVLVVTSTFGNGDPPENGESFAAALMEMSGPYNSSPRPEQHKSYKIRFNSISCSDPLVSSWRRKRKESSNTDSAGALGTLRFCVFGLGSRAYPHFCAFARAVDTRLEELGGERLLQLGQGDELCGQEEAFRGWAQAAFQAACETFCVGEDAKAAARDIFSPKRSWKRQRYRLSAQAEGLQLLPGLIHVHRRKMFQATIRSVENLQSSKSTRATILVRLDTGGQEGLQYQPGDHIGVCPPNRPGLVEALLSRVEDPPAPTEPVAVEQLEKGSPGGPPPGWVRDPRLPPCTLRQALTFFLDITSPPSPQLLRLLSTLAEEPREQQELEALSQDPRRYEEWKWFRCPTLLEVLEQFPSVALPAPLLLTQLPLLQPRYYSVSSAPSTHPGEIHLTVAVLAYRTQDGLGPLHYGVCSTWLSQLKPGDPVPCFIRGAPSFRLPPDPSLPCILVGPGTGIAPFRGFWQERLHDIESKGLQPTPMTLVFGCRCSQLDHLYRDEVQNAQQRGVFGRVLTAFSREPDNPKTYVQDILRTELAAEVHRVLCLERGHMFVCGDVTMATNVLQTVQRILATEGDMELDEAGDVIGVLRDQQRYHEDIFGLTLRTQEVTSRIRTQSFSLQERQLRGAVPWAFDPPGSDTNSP
# Sequence of 5-hydroxytryptamine 1D receptor (Q8MI13 whole entry): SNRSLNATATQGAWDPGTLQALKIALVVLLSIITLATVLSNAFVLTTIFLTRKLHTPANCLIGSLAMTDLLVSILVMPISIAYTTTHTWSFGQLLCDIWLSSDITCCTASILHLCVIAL
IC50 (Nitric oxide synthase 3) [nM],SMILES,IC50 [1] [nM]
–,CN1CC=C(c2c[nH]c3ccc(NC(=S)NC(=O)c4ccccc4)cc23)CC1,56
–,CN1CC=C(c2c[nH]c3ccc(CNC(=N)c4cccs4)cc23)CC1,220
–,CN1CC=C(c2c[nH]c3ccc(NC(=N)c4cccs4)cc23)CC1,51
–,CN1CC=C(c2c[nH]c3ccc(NC(=N)c4ccco4)cc23)CC1,50
–,CN1CCC(c2c[nH]c3ccc(NC(=N)c4cccs4)cc23)CC1,570
–,CCSC(=N)Nc1ccc2[nH]cc(C3=CCN(C)CC3)c2c1,48
–,CN(C)CCc1c[nH]c2ccc(CNC(=N)c3cccs3)cc12,290
–,CCN1CCC(c2c[nH]c3ccc(NC(=N)c4cccs4)cc23)CC1,680
–,CN1CCC[C@@H]1Cc1c[nH]c2ccc(NC(=N)c3cccs3)cc12,130
–,CN1CCC[C@H]1Cc1c[nH]c2ccc(NC(=N)c3cccs3)cc12,1100
–,CN1CCC(c2c[nH]c3ccc(NC(=N)c4cccs4)cc23)C1 (stereo not drawn),350
–,CN1CCC(c2c[nH]c3ccc(/N=C(\N)c4ccco4)cc23)C1 (stereo not drawn),560
40100,CN1CC[C@@H](c2c[nH]c3ccc(/N=C(\N)c4cccs4)cc23)[C@H](F)C1,–
